Like-named read-outs stand apart in the source and are kept apart here.
Key:
[1] = system: primary limb mesenchymal cultures; assay: Cartilage nodule formation in primary limb mesenchymal cultures (alcian blue staining); type: cell-based, mouse
Method: (§1) Limb mesenchymal cells were harvested from embryonic age 11.25-11.75 mouse embryos as previously described (Weston et al., 2000). The cells were resuspended at a density of about 2.5×10^7 cells/ml prior to transfections, otherwise they were resuspended at 1.5×10^7 cells/ml. For transfection purposes, cells were mixed with a DNA/FuGene6 mixture in a 2:1 ratio. FuGene6-DNA mixtures were prepared according to the manufacturer's instructions (Roche Biomolecular). Briefly, 1 μg of reporter, 1 μg of expression vector and 0.05 μg of pRLSV40 (Promega) were mixed for a total of about 2 μg DNA in 100 μL of media and FuGene6. Fifty microlitres of the DNA mixture was transferred into a sterile 1.5 ml eppendorf tube, followed by 100 μl of cells. Cells were gently triturated and 10 μl was used to seed each single well of a 24-well culture dish. After 1.5 hrs in a humidified CO2 incubator, 1 ml of media containing compounds of interest was added to each well and was subsequently replaced 24 hours following transfection. All-trans RA (at-RA; Sigma), AGN193836 (Teng et al., 1996), AGN194301 (Teng et al., 1997) and AGN194310 (Johnson et al., 1999)(Allergan Inc.) were dissolved in 95% ethanol. SB202190 and SB203580 (Calbiochem) and H89 (Sigma) were dissolved in dimethyl sulfoxide (DMSO) (BDH). 8-(4-chlorophenylthio)-cAMP (pCPT-cAMP, Sigma) was dissolved in water just prior to use.
(§2) Analysis of reporter gene activity using the Dual Luciferase Assay System was done following the manufacturer's instructions (Promega). Briefly, approximately 48 hours following the transfections, cells were washed once with PBS and lysed in 100 μl of Passive Lysis Buffer for 20 minutes. Firefly and renilla luciferase activities were determined using 40 μl of lysate in a 96-well plate-reading luminometer (Molecular Devices). Alcian blue staining of cultures was carried out as described previously (Cash et al., 1997).

pGL3(4×48) Sox9 reporter = assay: Sox9 reporter (pGL3(4×48)) luciferase assay in transiently transfected primary limb mesenchymal cultures; type: cell-based, mouse; conditions: for effect on the antagonist-induced increase in Sox9 reporter activity (in words): co-treatment with AGN194301 or AGN194310
Source text: The Sox9 responsive reporter (herein referred to as the Sox9 reporter) was generated by subcloning a fragment containing a reiterated (4×48) Sox9 binding sequence coupled to the mouse Col2a1 minimal promoter (−89 to +6) into pGL3. The fragment containing the 4×48 repeat and minimal promoter was isolated as a BamH I/Hind III fragment from the original 4×48-p89Luc reporter plasmid previously described (Lefebvre et al., 1997), and was subcloned into the BgI II and Hind III sites of pGL3-basic (Promega) to generate pGL3(4×48). The reporter pW1-Col2-Luc was generated from the original p309i(182×2)βgeoCol2a1 (Zhou et al., 1995) by subcloning the regulatory region (consisting of a 309-bp promoter region and two tandem repeats of a 182-bp intron-1 fragment) into pW1 (Balkan et al., 1992) as an EcoR I/BamH I fragment. A BgI II fragment containing the luciferase gene isolated from pJD205 (de Wet et al., 1987) was subcloned into the BamH I site of pW1-Col2 to generate pW1-Col2-Luc. The pcDNA3-hSox9 expression vector was as described (Lefebvre et al., 1997). To generate a mutated form of hSox9, hSox9 was subcloned into pKSII (Stratagene) and serine 181 was replaced with alanine, using the Quick-Change XL system (Stratagene) with the following overlapping primers: 5′-[…]-3′, and 5′-[…]-3′. Following mutagenesis, the Sox9 mutant and wt Sox9 were subcloned into pcDNA3, and the serine-alanine conversion was confirmed by sequencing.
as §1, §2

[2] = system: RA response element (pW1-βRARE3-Luc); assay: Retinoic acid responsive reporter (pW1-βRARE3-Luc) luciferase assay in primary limb mesenchymal cells; type: cell-based, mouse; conditions: for effect on RARE reporter activity (in words): concentration series
Method: as §1, §2

IL-2 gene expression = conditions: Koyama et al., 2000; read-out: IC50 for inhibition of IL-2 gene expression; cited from earlier work
[3] = system: primary limb mesenchymal cultures; conditions: earlier work, Weston et al., 2000; cited from earlier work
Sox9 mRNA = assay: Northern blot of Sox9 mRNA in limb mesenchymal cultures; type: cell-based, mouse; conditions: 1 μM, 2-day cultures
Method: Northern blots were carried out using total RNA from limb mesenchymal cultures, as previously described (Weston et al., 2000). Briefly, total RNA was extracted from cells cultured for 2, 4, 6 or 8 days. Cells were treated with media alone or with AGN 194301. Synthesis of the Col2a1 cDNA fragment used was as described previously (Weston et al., 2000). The Sox9 cDNA probe was made using an EST clone, GenBank accession number Al594348 (Research Genetics). The Sox9 fragment was released from pT7T3 using Eco RI and Not I.

[4] = 10 μM, versus untreated control cultures
[5] = day 4 alcian blue-stained cultures

CCc1ccc(C2=CC(C)(C)Sc3ccc(C#Cc4ccc(C(=O)O)cc4)cc32)cc1 [AGN194310]
concentration at which increase in nodule formation can be observed ([1]; treatment for 4 days, alcian blue): 10 nM
maximal induction of Sox9 reporter activity (pGL3(4×48) Sox9 reporter; at 50 nM, primary limb mesenchymal cells): ~530%
concentration inducing Sox9 reporter activity greater than the maximal response elicited by 301 (pGL3(4×48) Sox9 reporter; concentrations as low as): ≥ 10 nM
effect on RARE reporter activity (in words) [2]: attenuated by 310 more effectively than by 301

Oc1ccc(-c2nc(-c3ccncc3)c(-c3ccc(F)cc3)[nH]2)cc1 [SB202190]
cartilage nodule formation (in words) [1, 4]: almost no cartilage nodules form
effect on Sox9 reporter activity (in words) (pGL3(4×48) Sox9 reporter; 5 or 10 μM): decrease in Sox9 reporter activity compared to untreated controls
effect on the antagonist-induced increase in Sox9 reporter activity (in words) (pGL3(4×48) Sox9 reporter): attenuated the chondrogenic response to AGN194301

CC(/C=C/C(=O)NO)=C\[C@@H](C)C(=O)c1ccc(N(C)C)cc1 [TSA, Trichostatin A]
cartilage nodule formation (in words) [1, 5]: decrease in the number of cartilage nodules
effect on the antagonist-induced increase in Sox9 reporter activity (in words) (pGL3(4×48) Sox9 reporter): attenuated the 310-induced increase
effect on Sox9 reporter activity (in words) (pGL3(4×48) Sox9 reporter; concentration series): dose-dependent decrease in Sox9 reporter activity
effect on RARE reporter activity (in words) [2]: enhanced activity of the pW1-αRARE3tkLuc reporter in a concentration-dependent manner
IC50 (IL-2 gene expression): 73 nM

O=S(=O)(NCCNC/C=C/c1ccc(Br)cc1)c1cccc2cnccc12 [H89]
cartilage nodule formation (in words) [1, 4]: fewer nodules are detected compared to untreated cultures
effect on Sox9 reporter activity (in words) (pGL3(4×48) Sox9 reporter; 10 μM, absence of exogenous Sox9): repressed reporter activity
effect on the antagonist-induced increase in Sox9 reporter activity (in words) (pGL3(4×48) Sox9 reporter): reduced Sox9 reporter activity both in the presence or absence of AGN194301 or dnRARα
effect on Sox9 reporter activity (in words) (pGL3(4×48) Sox9 reporter; presence of co-transfected Sox9): slightly decreased reporter activity

Cc1ccc(C2=CC(C)(C)Oc3c(Br)cc(C(=O)Nc4ccc(C(=O)O)c(F)c4)cc32)cc1 [AGN194301, 2-Fluoro-4-[(1-(8-bromo-2,2-dimethyl-4-(4-methylphenyl)-2-H-chromen-6-yl)-methanoyl)-amino]-benzoic acid]
cartilage nodule formation (in words) [3]: substantial increase in the number of cartilage nodules
concentrations giving significant differences in Sox9 reporter activity (Bonferroni post-tests) (pGL3(4×48) Sox9 reporter; FIG. 1A, P at least <0.05): ≥ 100 nM
greatest induction of Sox9 reporter activity (pGL3(4×48) Sox9 reporter; at 1 μM, primary limb mesenchymal cells): about 280%
effect on Sox9 reporter activity (in words) (pGL3(4×48) Sox9 reporter; concentration series): concentration-dependent increase in reporter activity
Sox9 mRNA expression (in words) (Sox9 mRNA): noticeable increase in Sox9 mRNA
concentrations inducing significant changes in activity of the RARE reporter (Bonferroni post-tests) ([2]; FIG. 1B, P at least <0.05): ≥ 100 nM

Nc1ncnc2c1nc(Sc1ccc(Cl)cc1)n2[C@@H]1O[C@@H]2COP(=O)(O)O[C@H]2[C@H]1O [pCPT-cAMP, 8-(4-chlorophenylthio)-cAMP]
increase in Sox9 reporter activity (pGL3(4×48) Sox9 reporter; 500 μM, absence of exogenous Sox9): about 4.5 fold
further increase in Sox9 reporter activity (pGL3(4×48) Sox9 reporter; co-transfection with wt Sox9 or Sox9-181A): < 1.5 fold

CC1=C(/C=C/C(C)=C/C=C/C(C)=C/C(=O)O)C(C)(C)CCC1 [at-RA, All-trans RA]
cartilage nodule formation (in words) [1, 5]: more potent inhibitor of cartilage nodule formation than 836
Sox9 reporter activity reduced to (% of control) (pGL3(4×48) Sox9 reporter; at 5 nM): 53%
effect on Sox9 reporter activity (in words) (pGL3(4×48) Sox9 reporter; concentration series): attenuated reporter activity
effect on RARE reporter activity (in words) [2]: activated the RARβ reporter to a greater extent than about 836

Reference: patent publication US20050009868A1, “Retinoid receptor pan-antagonists for stimulating chondrogenesis” (priority 2001, published 2005)
